Laboratory results as given in ChEMBL document CHEMBL5712891, “Inhibition of BET bromodomain-dependent XIAP and FLIP expression sensitizes KRAS-mutated NSCLC to pro-apoptotic agents” (Cell Death Dis, 2016).
Calls of active or inactive are those of the source. The rule behind the calls is not given here.

Tests used:
[1] = test system: A549; test: Induction of cell cycle arrest in human A549 cells assessed as accumulation of cells at G2/M phase at 0.5 uM for 24 hrs by Click-iT EdU Alexa Fluor 647 flow cytometric assay kit analysis (reference value: 3%); format: functional
[2] = test system: DV-90; test: Induction of cell cycle arrest in human DV-90 cells assessed as accumulation of cells at G2/M phase at 0.5 uM for 24 hrs by Click-iT EdU Alexa Fluor 647 flow cytometric assay kit analysis (reference value: 24%); format: functional
[3] = test system: NCI-H1373; test: Induction of cell cycle arrest in human NCI-H1373 cells assessed as accumulation of cells at G0/G1 phase at 0.25 uM for 24 hrs by Click-iT EdU Alexa Fluor 647 flow cytometric assay kit analysis (reference value: 40%); format: functional
[4] = test system: A549; test: Induction of cell cycle arrest in human A549 cells assessed as accumulation of cells at S phase at 1 uM for 24 hrs by DAPI staining analysis (reference value: 36%); format: functional
[5] = test system: DV-90; test: Induction of apoptosis in human DV-90 cells assessed as late apoptotic cells at 0.5 uM for 24 hrs by annexin V-PI staining based flow cytometric analysis (reference value: 11.4%); format: functional
[6] = test system: NCI-H1373; test: Induction of apoptosis in human NCI-H1373 cells assessed as viable cells at 2.5 uM for 24 hrs by annexin V-PI staining based flow cytometric analysis (reference value: 77.7%); format: functional; conditions: read-out: Activity
[7] = test system: NCI-H1373; test: Induction of apoptosis in human NCI-H1373 cells assessed as necrotic cells at 2.5 uM for 24 hrs by annexin V-PI staining based flow cytometric analysis (reference value: 5.5%); format: functional
[8] = test system: NCI-H1373; test: Downregulation of c-MYC protein level in human NCI-H1373 cells upto 24 hrs by Western blot analysis; format: functional, cell-based; conditions: dose 100-5000 nM
[9] = test system: LCLC-97TM1; test: Downregulation of c-MYC mRNA expression level in human LCLC-97TM1 cells at 0.1 to 1 uM for 24 hrs by qRT-PCR analysis; format: functional, cell-based; conditions: dose 0.1-1 µM
[10] = test system: NCI-H1792; test: Downregulation of c-MYC mRNA expression level in human NCI-H1792 cells at 0.1 to 1 uM for 24 hrs by qRT-PCR analysis; format: functional, cell-based; conditions: dose 0.1-1 µM
[11] = test system: NCI-H2347; test: Downregulation of c-MYC mRNA expression level in human NCI-H2347 cells at 0.1 to 1 uM for 24 hrs by qRT-PCR analysis; format: functional, cell-based; conditions: dose 0.1-1 µM
[12] = test system: NCI-H1792; test: Downregulation of FLIP mRNA expression level in human NCI-H1792 cells at 0.1 to 1 uM for 24 hrs by qRT-PCR analysis; format: functional, cell-based; conditions: dose 0.1-1 µM
[13] = test system: NCI-H2347; test: Downregulation of FLIP mRNA expression level in human NCI-H2347 cells at 0.1 to 1 uM for 24 hrs by qRT-PCR analysis; format: functional, cell-based; conditions: dose 0.1-1 µM
[14] = test system: NCI-H1792; test: Downregulation of XIAP protein expression level in human NCI-H1792 cells at 1 uM for 24 hrs by […] analysis; format: functional, cell-based
[15] = test system: A549; test: Downregulation of XIAP protein expression level in human A549 cells at 1 uM for 24 hrs by […] analysis; format: functional, cell-based
[16] = test system: NCI-H2347; test: Downregulation of XIAP protein expression level in human NCI-H2347 cells at 1 uM for 24 hrs by […] analysis; format: functional, cell-based
[17] = test system: NCI-H23; test: Downregulation of c-MYC protein expression level in human NCI-H23 cells at 1 uM for 24 hrs by […] analysis; format: functional, cell-based
[18] = test system: NCI-H1373; test: Induction of TRAIL dependent apoptosis in human NCI-H1373 cells assessed as necrotic cells at 1 uM by annexin V-PI staining based flow cytometric analysis (reference value: 3.6%); format: functional
[19] = test system: NCI-H1373; test: Induction of TRAIL dependent apoptosis in human NCI-H1373 cells assessed as late apoptotic cells at 1 uM in presence of […] by annexin V-PI staining based flow cytometric analysis (reference value: 8.3%); format: functional
[20] = test system: NCI-H460; test: Antiproliferative activity against human NCI-H460 cells at 500 to 2500 nM in presence of TNF by cell titre glo assay; format: functional, cell-based; conditions: dose 500-2500 nM
[21] = test system: HFF-1; test: Cytotoxicity against HFF-1 cells at 500 to 2500 nM in presence of TNF by cell titre glo assay; format: toxicity, cell-based; conditions: human, hff-1, 2.5 µM; dose 500-2500 nM
[22] = test system: A549; test: Induction of apoptosis in human A549 cells assessed as viable cells at 1 uM by annexin V-PI based flow cytometric analysis (reference value: 95.7%); format: functional; conditions: read-out: Activity
[23] = test system: A549; test: Induction of apoptosis in human A549 cells assessed as early apoptotic cells at 1 uM by annexin V-PI based flow cytometric analysis (reference value: 0.2%); format: functional
[24] = test system: A549; test: Induction of apoptosis in human A549 cells assessed as late apoptotic cells at 1 uM in presenc of cisplatin by annexin V-PI based flow cytometric analysis (reference value: 2.5%); format: functional
[25] = Toxicity in SCID mouse xenografted with human A549 cells assessed as body weight loss administered at 80 mg/kg, ip for 28 days relative to control; format: organism-based; conditions: in vivo, 672 h, time 28 day
[26] = Toxicity in SCID mouse xenografted with human A549 cells assessed as body weight loss administered at 50 mg/kg, ip for 28 days relative to control; format: organism-based; conditions: in vivo, 672 h, time 28 day
[27] = test system: DV-90; test: Induction of cell cycle arrest in human DV-90 cells assessed as accumulation of cells at S phase at 0.5 uM for 24 hrs by Click-iT EdU Alexa Fluor 647 flow cytometric assay kit analysis (reference value: 30%); format: functional
[28] = test system: NCI-H1373; test: Induction of cell cycle arrest in human NCI-H1373 cells assessed as accumulation of cells at G0/G1 phase at 0.1 uM for 24 hrs by Click-iT EdU Alexa Fluor 647 flow cytometric assay kit analysis (reference value: 45%); format: functional
[29] = test system: NCI-H1373; test: Induction of cell cycle arrest in human NCI-H1373 cells assessed as accumulation of cells at G0/G1 phase at 0.5 uM for 24 hrs by Click-iT EdU Alexa Fluor 647 flow cytometric assay kit analysis (reference value: 45%); format: functional
[30] = test system: DV-90; test: Induction of apoptosis in human DV-90 cells assessed as late apoptotic cells at 2.5 uM for 24 hrs by annexin V-PI staining based flow cytometric analysis (reference value: 8.7%); format: functional
[31] = test system: A549; test: Induction of apoptosis in human A549 cells assessed as late apoptotic cells at 0.5 uM for 24 hrs by annexin V-PI staining based flow cytometric analysis (reference value: 1.2%); format: functional
[32] = test system: A549; test: Induction of apoptosis in human A549 cells assessed as necrotic cells at 0.5 uM for 24 hrs by annexin V-PI staining based flow cytometric analysis (reference value: 0.9%); format: functional
[33] = test system: NCI-H1373; test: Induction of apoptosis in human NCI-H1373 cells assessed as early apoptotic cells at 2.5 uM for 24 hrs by annexin V-PI staining based flow cytometric analysis (reference value: 1.7%); format: functional
[34] = test system: NCI-H460; test: Induction of apoptosis in human NCI-H460 cells assessed as necrotic cells at 0.5 uM for 24 hrs by annexin V-PI staining based flow cytometric analysis (reference value: 3.2%); format: functional

In the case of `Cc1sc2c(c1C)C(c1ccc(Cl)cc1)=N[C@@H](CC(=O)OC(C)(C)C)c1nnc(C)n1-2`, the Activity [1] is reported as 3%, the Activity [2] is reported as 30% and the Activity [3] is reported as 60%. For the same compound, the Activity [4] was 32%, the Activity [5] was 10.7% and the viability at 2.5 µM [6] was 58%. The Activity [7] was 17.2%, the Activity [8] was “Dose-Dependent Effect” and the Activity [9] was “Active”. The Activity [10] was “Active”, the Activity [11] was “Active” and the Activity [12] was “Active”. For the same compound, the Activity [13] was “Active”, the Activity [14] was “Active” and the Activity [15] was “Active”. The Activity [16] was “Active”, the Activity [17] was “Active” and the Activity [18] was 19.1%. The Activity [19] was 35.9%, the Activity [20] was “Active” and the Activity [21] was “Non-Toxic”. The viability at 1 µM [22] was 98%, the Activity [23] was 0.1% and the Activity [24] was 28.5%. For the same compound, the Activity [25] was 7% and the Activity [26] was 5%.

With `CCNC(=O)C[C@@H]1N=C(c2ccc(Cl)cc2)c2cc(OC)ccc2-n2c(C)nnc21` [MOLIBRESIB] the Activity [27] was 25%, the Activity [28] was 46% and the Activity [29] was 47%.

Work on `Cc1sc2c(c1C)C(c1ccc(Cl)cc1)=N[C@@H](CC(=O)Nc1ccc(O)cc1)c1nnc(C)n1-2` [BIRABRESIB] yielded an Activity [30] of 13.5%, an Activity [31] of 1.1% and an Activity [32] of 0.7%. It also gave an Activity [33] of 1.8% and an Activity [34] of 4.7%.
